Here are results for one compound from patent publication US11471502B2, “Neuroprotective peptide” (UNIVERSITY COLLEGE CARDIFF C[…], priority 2017, dated 2022).

Broadly, the half-life is the time in which the quantity being followed falls by half.

“Also recorded” adds a separate entry of the source.

In series [1] the test system is phospho-p44/p42 MAP kinase (Thr202/Tyr204). Put plainly: In vivo time course and dose response of ERK activation in dorsal striatum. Also noted: species or system mouse. The conditions noted are these: dorsal striatum. On the procedure:
(§1) Mice injected with RB5 were perfused at different time points, whereas scramble-injected mice were perfused after 1 hour. Immunohistochemical analysis was carried out against phospho-p44/p42 MAP kinase (Thr202/Tyr204). […] One-way ANOVA F5,29=9.137, p<0.0001. Bonferroni's post-hoc test, SCR vs RB5 1 h: p<0.001, SCR vs RB5 6 h: p<0.001. […] Immunohistochemical analysis was carried out against phospho-p44/p42 MAP kinase (Thr202/Tyr204). […] One-way ANOVA: F5,29=7.097, p<0.001. Bonferroni's post-hoc test, SCR vs RB5 20 mg/kg: p<0.05, SCR vs RB5 10 mg/kg: p<0.01. Data are expressed as Mean±SEM. c) RB5 brain levels measured with mass spectrometry at different hours after a single i.p. administration of 20 mg/kg. High levels of RB5 were detected up to 6 hrs (one-way ANOVA, F4,18=17.469, P<0.0001, Bonferroni's post-hoc, SCR vs RB5 1 h P<0.01, SCR vs RB5 3 h P<0.0001, SCR vs RB5 6 h P<0.05). […] White star P<0.0001, P<0.001, P<0.01, P<0.05.
(§2) 1 h after CPP-RB5/CPP-SCR (20 mg/kg, i.p.) mice were anaesthetized and perfused via intracardiac infusion of ice-cold 4% PFA. Brains were rapidly extracted, post-fixed overnight and transferred to 25% buffered sucrose for 24 h. Coronal sections were cut at 30 μm thickness on a freezing microtome and stored in a cryoprotective solution at −20° C. until they were processed for immunohistochemistry. Free-floating sections were incubated with primary antibodies against anti-phospho-p44/42 MAP kinase (Thr202/Tyr204), anti-phospho-Elk-1 (Ser383), anti-phospho-Kv4.2 (Thr607)-R, anti-phospho-MSK-1, anti-phospho-MEK-1, c-Fos and Tyrosine Hydroxylase overnight at 4° C. Sections were then incubated with biotinylated goat anti-rabbit IgG (1:200, Vector Labs) for 2 h. Detection of the bound antibodies was carried out using a standard peroxidase-based method (ABC-kit, Vectastain, Vector Labs), followed by a DAB and H2O2 solution. Quantification of positive neurons were counted from striatum in 2-3 sections per mouse, bilaterally. Sample areas were visualized under a 20× objective in a Leica DM IRB microscope by a blind investigator to condition and counts per region were averaged across the sections using the ImageJ software.

Assay in series [2]: as above
Also noted: species or system mouse. The conditions noted are these: mouse, in vivo, ip; 20 mg/kg i.p.; read-out: estimated half-life (of RB5 activity on pERK in brain) (converted). On the procedure:
as §1, §2

Series [3] in a line: RB5 brain levels by HPLC-MS/MS after single i.p. administration. It counts as in vivo, mouse. Conditions: single i.p. 20 mg/kg, mass spectrometry. On the procedure:
Bioavailability of RB5 in the mouse brain was determined at different time intervals (1, 3, 6, 12 h) after a single i.p. administration of 20 mg/kg. RB5 was then quantified in mouse brain using HPLC-MS/MS. Brain samples were homogenized with 1:4 w/v of 50% acetonitrile, 5% TFA in water with an homogenizer ultra-turrax and then centrifuged at 13000 rpm for 10 min at 4° C. The supernatant was collected and centrifuged at 13000 rpm for 2 minutes at 4° C. The supernatant was then collected in ice, extracted using Sep-Pak cartridges C18, lyophilised and kept at 4° C. before HPLC-MS/MS analysis. Immediately before the analysis samples were suspended in 100 μL of 0.1% HCOOH in water/8% acetonitrile in auto-sampler vials.
HPLC-MS/MS analysis was performed using a system consisting of an Agilent 1200 series HPLC system coupled with an Agilent 6410 Triple Quadruple mass spectrometer. Mass Hunter Workstation v. […] The quantification of mouse brain levels of RB5 and scramble peptides was carried out using an internal standard curve with peptide concentrations ranging from 0.1 to 4 ng per μl. […]
Peptides were then detected on an Agilent 6410 QQQ mass spectrometer using the following parameters: positive ion mode, 5 kV capillary voltage, cone voltage 500 V, gas flow rate 8 L/min at 350° C., nebulizer gas pressure 40 PSI at 350° C., well time 75 msec and Q1 and Q3 set to unit resolution.

For `CSCC[C@H](NC(=O)[C@H](CCC(=O)O)NC(=O)[C@@H](NC(=O)[C@H](CCC(=O)O)NC(=O)CNC(=O)[C@@H]1CCCN1C(=O)[C@@H](NC(=O)CNC(=O)[C@@H]1CCCN1C(=O)CNC(=O)[C@@H](NC(=O)CNC(=O)[C@H](CCC(=O)O)NC(=O)[C@@H](NC(=O)[C@H](CCCNC(=N)N)NC(=O)[C@H](CCCNC(=N)N)NC(=O)[C@@H]1CCCN1C(=O)[C@H](CCC(=O)O)NC(=O)CNC(=O)CNC(=O)CNC(=O)CNC(=O)CNC(=O)[C@H](CCC(N)=O)NC(=O)[C@@H]1CCCN1C(=O)[C@@H]1CCCN1C(=O)[C@H](CCCNC(=N)N)NC(=O)[C@H](CCCNC(=N)N)NC(=O)[C@H](CCCNC(=N)N)NC(=O)[C@H](CCC(N)=O)NC(=O)[C@H](CCCNC(=N)N)NC(=O)[C@H](CCCNC(=N)N)NC(=O)[C@H](CCCCN)NC(=O)[C@H](CCCCN)NC(=O)[C@H](CCCNC(=N)N)NC(=O)CNC(C)=O)[C@@H](C)O)C(C)C)C(C)C)C(C)C)C(=O)N[C@H](C(=O)N[C@@H](CCCCN)C(=O)NCC(=O)N[C@@H](CCC(N)=O)C(=O)N1CCC[C@H]1C(=O)N[C@@H](Cc1ccccc1)C(=O)N[C@@H](CC(=O)O)C(=O)N[C@@H](C(=O)O)C(C)C)C(C)C` [RB5], in series [1] (20 mg/kg i.p.), the “time after injection at which phospho-ERK returned to basal levels” value is 12 h and the “time after injection up to which phospho-ERK levels / RB5 activity remained increased” value is listed as “up to 6 h”. Also, in series [1] (different doses i.p., 1 hour after injection), the pERK dose response entry is “both 20 and 10 mg/kg (i.p.) doses are able to elevate pERK; also recorded: dose-dependent manner”. Further, in series [2], the half-life is 9 h. In addition, in series [3], the “time up to which high RB5 brain levels were detected” value is on record as “up to 6 h”.
